Measurements as given in patent US7629150B2, “Transformed cell harboring DNA or RNA encoding sugar chain synthesizing agent having β1,3-N-acetylglucosaminyltransferase activity” (Kyowa Hakko Kirin Co., Ltd., priority 2000, dated 2009).

Experiments:
Format in all cases: biochemical
[1] = biological target: T1, G6sec2 (Homo sapiens, UniProt Q9BYG0); assay: β1,3-N-acetylglucosaminyltransferase activity of purified FLAG peptide-fused G6 polypeptide, 2-aminobenzamide-labeled oligosaccharide substrates; conditions: 2-aminobenzamide-labeled oligosaccharides, LNnT defined as 100%; for Relative activity (%) Test 2 G6sec2: enzyme prepared again
T1 construct: made in house; host or cells: Sf21 insect cells infected with pVL1393-F2G6sec2-derived recombinant baculovirus
T1 sequence (Q9BYG0 39-378): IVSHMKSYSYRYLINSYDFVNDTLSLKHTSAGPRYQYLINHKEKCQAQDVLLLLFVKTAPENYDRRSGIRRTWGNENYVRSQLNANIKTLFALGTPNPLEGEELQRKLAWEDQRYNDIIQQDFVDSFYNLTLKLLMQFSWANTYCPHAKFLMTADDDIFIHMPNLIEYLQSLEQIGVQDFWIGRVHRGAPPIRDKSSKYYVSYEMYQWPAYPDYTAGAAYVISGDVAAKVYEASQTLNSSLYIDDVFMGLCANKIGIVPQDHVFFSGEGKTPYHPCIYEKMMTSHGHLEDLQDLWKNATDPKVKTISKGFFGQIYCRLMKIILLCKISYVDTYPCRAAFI
Method: (§1) β1,3-N-Acetylglucosaminyltransferase activity of the FLAG peptide-fused G6 polypeptide secreted and produced in insect cells was measured by using the eluate prepared in Example 8(6). The method of Example 7 was used for the activity measurement.
(§2) As substrates, oligosaccharides [LNnT, Galβ1-4GlcNAcβ1-3Galβ1-4GlcNAc (hereinafter referred to as “2LN”), Galβ1-4GlcNAcβ1-3Galβ1-4GlcNAcβ1-3Galβ1-4GlcNAc (hereinafter referred to as “3LN”), Galβ1-4GlcNAcβ1-3Galβ1-4GlcNAcβ1-3Galβ1-4GlcNAcβ1-3Galβ1-4GlcNAc (hereinafter referred to as “4LN”), Galβ1-4GlcNAcβ1-3Galβ1-4GlcNAcβ-3Galβ1-4GlcNAcβ1-3Galβ1-4GlcNAcβ1-3Galβ1-4GlcNAc (hereinafter referred to as “5LN”), or Galβ1-4(SO3-6)GlcNAcβ1-3Galβ1-4(SO3-6)GlcNAc (hereinafter referred to as “L2L2”)] were labeled with 2-aminobenzamide and used. 2-Aminobenzamide-labeling of oligosaccharides was carried out using SIGMA 2AB glycan labeling kit (manufactured by Oxford Glycoscience) according to the manufacture's instructions of the kit. LNnT was purchased from Oxford Glycosystems. Other oligosaccharides were obtained from Seikagaku Corporation.
Specifically, the reaction was carried out at 37° C. for 16 hours in 20 μl of an assay solution [150 mmol/l sodium cacodylate (pH 7.2), 50 mmol/l UDP-GlcNAc (manufactured by SIGMA), 0.4% Triton CF-54, 10 mmol/l MnCl2, 5 μmol/12-aminobenzamide-labeled sugar chain substrate, the above purified enzyme solution], and then the product was detected by high performance liquid chromatography (HPLC, details will be described below). As the enzyme, an eluate (1.5 μl) prepared from a culture supernatant of Sf21 infected with the recombinant virus derived from pVL1393-F2G6sec1 or an eluate (1.4 μl) prepared from a culture supernatant of Sf21 infected with the recombinant virus derived from pVL1393-F2G6sec2, prepared in Example 8(6), was used.
(§3) The assay solution after completion of the reaction was treated at 100° C. for 5 minutes and then mixed with 50 μl of pure water for HPLC and centrifuged at 10,000×g for 5 minutes to obtain the supernatant. To a tube containing the assay solution, 50 μl of pure water for HPLC was added again, the tube was washed, and suparnatant was obtained by centrifugation at 10,000×g for 5 minutes and was combined with the first supernatant. Next, the supernatant was passed through Ultrafree-MC column (manufactured by Millipore) and a portion thereof (10 μl) was subjected to HPLC. The Ultrafree-MC column was used according to the method described in the manufacture's instructions attached thereto.
(§4) The HPLC was carried out using TSK-gel ODS-80Ts Column (4.6×300 mm; manufactured by TOSOH) as a column and 0.02 mol/l ammonium acetate buffer containing 7% methanol (pH 4.0) as an eluant at an elution temperature of 50° C. and a flow rate of 1 ml/min.
(§5) The product was detected using a fluorescence spectrophotometer FP-920 (manufactured by JASCO Corporation) (excitation wavelength: 330 nm, radiation wavelength: 420 nm).
Also, a purified enzyme (G6sec2) was again prepared using the method shown in Example 8(6), its substrate specificity was again examined, and the results are also shown in Table 1 (Test 2 in Table 1). The purified enzyme (280 μl) was prepared from 30 ml of a culture supernatant of Sf21 infected with the recombinant virus derived from pVL1393-F2G6sec2, and the assay was carried out using a 4 μl portion thereof. Relative activities when the activity measured using 2-aminobenzamide-labeled LNnT as the substrate is defined as 100% are shown in the table.

[2] = biological target: T2, G6sec1 (Homo sapiens, UniProt Q9BYG0); assay: as above; conditions: 2-aminobenzamide-labeled oligosaccharides; LNnT defined as 100%
T2 construct: made in house; host or cells: Sf21 insect cells infected with pVL1393-F2G6sec1-derived recombinant baculovirus
T2 sequence (Q9BYG0 36-378): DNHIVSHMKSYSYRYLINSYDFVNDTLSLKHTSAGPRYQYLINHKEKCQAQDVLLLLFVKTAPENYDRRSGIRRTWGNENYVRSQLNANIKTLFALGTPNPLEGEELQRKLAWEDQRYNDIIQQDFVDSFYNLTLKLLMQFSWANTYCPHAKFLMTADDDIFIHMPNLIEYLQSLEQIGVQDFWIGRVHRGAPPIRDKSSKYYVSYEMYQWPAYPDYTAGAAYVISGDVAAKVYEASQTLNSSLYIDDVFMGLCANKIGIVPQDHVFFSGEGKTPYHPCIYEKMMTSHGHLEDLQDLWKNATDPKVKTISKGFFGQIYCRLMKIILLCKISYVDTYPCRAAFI
Method: as §1, §2
Specifically, the reaction was carried out at 37° C. for 16 hours in 20 μl of an assay solution [150 mmol/l sodium cacodylate (pH 7.2), 50 mmol/l UDP-GlcNAc (manufactured by SIGMA), 0.4% Triton CF-54, 10 mmol/l MnCl2, 5 μmol/12-aminobenzamide-labeled sugar chain substrate, the above purified enzyme solution], and then the product was detected by high performance liquid chromatography (HPLC, details will be described below). […]
as §3, §4, §5

[3] = biological target: T1, G6sec2; assay: β1,3-N-acetylglucosaminyltransferase activity using pyridylaminated oligosaccharides as substrates; conditions: pyridylaminated oligosaccharides 50 μmol/l, 37° C., 14.5 hours, LNnT defined as 100%
Method: After carrying out the reaction at 37° C. for 14.5 hours in 30 μl of an assay solution [150 mmol/l sodium cacodylate (pH 7.2), 50 mmol/l UDP-GlcNAc (manufactured by SIGMA), 0.4% Triton CF-54, 10 mmol/l MnCl2, 50 μmol/l pyridylaminated sugar chain substrate, a purified enzyme solution (G6sec2)], the product was detected by HPLC. The purified enzyme (G6sec2) was obtained according to the method shown in Example 8(6). The purified enzyme (280 μl) was prepared from 30 ml of a culture supernatant of Sf21 infected with the recombinant virus derived from pVL1393-F2G6sec2, and the assay was carried out using 5 μl thereof. As substrates, LnNT, lacto-N-tetraose (Galβ1-3GlcNAcβ1-3Galβ1-4Glc (hereinafter referred to as “LNT”), lacto-N-fucopentaose II (Galβ1-3(Fucα1-4)GlcNAcβ1-3Galβ1-4Glc; hereinafter referred to as “LNFP-II”), lacto-N-fucopentaose III (Galβ1-4(Fucα1-3)GlcNAcβ1-3Galβ1-4Glc; hereinafter referred to as “LNFP-III”), lacto-N-fucopentaose V (Galβ1-3GlcNAcβ1-3Galβ1-4(Fucα1-3)Glc; hereinafter referred to as “LNFP-V”), and lacto-N-difucohexaose II (Galβ1-3(Fucα1-4)GlcNAcβ1-3Galβ1-4(Fucα1-3)Glc; hereinafter referred to as “LNDFH-II”) (all manufactured by Oxford Glycosystems) were fluorescently-labeled with aminopyridine and used. The substrates were fluorescently-labeled according to a conventional method [Agric. Biol. Chem., 54, 2169 (1990)].
After carrying out the reaction on each substrate using an assay solution containing UDP-GlcNAc (saccharide donor) and an assay solution containing no donor and subsequently analyzing by HPLC, peaks appeared only in the assay solution containing UDP-GlcNAc was defined as products.
The assay solution after completion of the reaction was treated at 100° C. for 5 minutes and then centrifuged at 10,000×g for 5 minutes to obtain a supernatant, and a part thereof (5 μl) was subjected to HPLC.
The HPLC was carried out using TSK-gel ODS-80Ts Column (4.6×300 mm; manufactured by TOSOH) and 0.02 mol/l ammonium acetate buffer (pH 4.0) as the eluant at an elution temperature of 50° C. and a flow rate of 0.5 ml/min.
Detection and determination of products were carried out using a fluorescence spectrophotometer FP-920 (manufactured by JASCO Corporation) (excitation wavelength: 320 nm, radiation wavelength: 400 nm).

[4] = biological target: T1, G6sec2; assay: β1,3-N-acetylglucosaminyltransferase activity using glycolipids as substrates (purified enzyme); conditions: glycolipid substrate; purified G6sec2
Method: Using glycolipids as the substrate, β1,3-N-acetylglucosaminyltransferase activity of the G6 polypeptide was measured according to known methods [FEBS, 462, 289 (1999), J. Biol. Chem., 269, 14730-14737 (1994), J. Biol. Chem., 267, 23507 (1992), J. Biol. Chem., 267, 2994 (1992)]. Specifically, the reaction was carried out at 37° C. for 16 hours in 20 μl of a reaction solution [150 mmol/l sodium cacodylate (pH 7.2), 10 mmol/l UDP-GlcNAc (manufactured by SIGMA), 480 μmol/l UDP—[^14C]GlcNAc (manufactured by Amersham), 0.4% Triton CF-54, 10 mmol/l MnCl2, […] glycolipid, purified enzyme (G6sec2)]. As the purified enzyme (G6sec2), 10 μl of the enzyme obtained in the above (2) was used. As glycolipids, lactosylceramide, paragloboside, galactosylceramide (Type I) and galactosylceramide (Type II) were used. Paragloboside was obtained from Yasunori Kushi at Tokyo Medical and Dental University. Other glycolipids were purchased from SIGMA. After completion of the reaction, 200 μl of 0.1 mol/l KCl was added and lightly centrifuged to obtain the supernatant. The supernatant was passed through Sep-Pak plus C18 Cartridge (manufactured by Waters) which had been washed once with 10 ml of methanol and equilibrated by washing twice with 10 ml of 0.1 mol/l KCl to adsorb the glycolipid in the supernatant onto the cartridge. After washing the cartridge twice with 10 ml of pure water for HPLC, the adsorbed glycolipid was eluted with 5 ml of methanol. After concentrating the eluate to about 10 μl using a vacuum dryer, the concentrated solution was plotted on a TLC plate (HPTLC plate Silica gel 60: manufactured by MERCK) and developed using a developing solvent comprising a composition of chloroform:methanol:water (containing 0.2% CaCl2)=65:35:8. After the development was carried out to a position 5 mm from the upper end of the TLC plate, the plate was dried and then the radioactivity incorporated into the glycolipid was measured using Bio Image Analyzer BAS 2000 (manufactured by Fuji Photo Film).

Compound: CC(=O)N[C@H]1[C@H](O[C@H]2[C@@H](O)[C@@H](CO)O[C@@H](O[C@H]3[C@H](O)[C@@H](NC(C)=O)[C@H](O[C@H]4[C@@H](O)[C@@H](CO)O[C@@H](O[C@H]5[C@H](O)[C@@H](NC(C)=O)C(O)O[C@@H]5CO)[C@@H]4O)O[C@@H]3CO)[C@@H]2O)O[C@H](CO)[C@@H](O[C@@H]2O[C@H](CO)[C@H](O)[C@H](O)[C@H]2O)[C@@H]1O (stereo partly shown) [3LN, Galβ1-4GlcNAcβ1-3Galβ1-4GlcNAcβ1-3Galβ1-4GlcNAc]
- Relative activity (%) Test 1 G6sec2 [1]: 95.8%
- Relative activity (%) Test 2 G6sec2 [1]: 79.2%
- Relative activity (%) Test 1 G6sec1 [2]: 92.9%

Compound: CC(=O)N[C@H]1[C@H](O[C@H]2[C@@H](O)[C@@H](CO)O[C@@H](O[C@@H]([C@H](O[C@@H]3O[C@@H](C)[C@@H](O)[C@@H](O)[C@@H]3O)[C@@H](O)C=O)[C@H](O)CO)[C@@H]2O)O[C@H](CO)[C@@H](O[C@@H]2O[C@@H](C)[C@@H](O)[C@@H](O)[C@@H]2O)[C@@H]1O[C@@H]1O[C@H](CO)[C@H](O)[C@H](O)[C@H]1O [LNDFH-II, lacto-N-difucohexaose II]
- Relative activity (%) [3]: <0.05%

Compound: CC(=O)N[C@H]1[C@H](O[C@H]2[C@@H](O)[C@@H](CO)O[C@@H](O[C@@H]([C@H](O)[C@@H](O)C=O)[C@H](O)CO)[C@@H]2O)O[C@H](CO)[C@@H](O[C@@H]2O[C@@H](C)[C@@H](O)[C@@H](O)[C@@H]2O)[C@@H]1O[C@@H]1O[C@H](CO)[C@H](O)[C@H](O)[C@H]1O [LNFP-II, lacto-N-fucopentaose II]
- Relative activity (%) [3]: <0.05%

Compound: CC(=O)N[C@H]1[C@H](O[C@H]2[C@@H](O)[C@@H](CO)O[C@@H](O[C@H]3[C@H](O)[C@@H](O)C(O)O[C@@H]3CO)[C@@H]2O)O[C@H](CO)[C@@H](O)[C@@H]1O[C@@H]1O[C@H](CO)[C@H](O)[C@H](O)[C@H]1O (stereo partly shown) [LNT, lacto-N-tetraose]
- Relative activity (%) [3]: 5.5%

Compound: Galβ1-4(SO3-6)GlcNAcβ1-3Galβ1-4(SO3-6)GlcNAc [L2L2]
- Relative activity (%) Test 2 G6sec2 [1]: 5.9%

Compound: Galβ1-4GlcNAcβ1-3Galβ1-4GlcNAcβ1-3Galβ1-4GlcNAcβ1-3Galβ1-4GlcNAc [4LN]
- Relative activity (%) Test 1 G6sec2 [1]: 21.5%
- Relative activity (%) Test 2 G6sec2 [1]: 10.0%
- Relative activity (%) Test 1 G6sec1 [2]: 13.2%

Compound: Galβ1-4GlcNAcβ1-3Galβ1-4GlcNAcβ-3Galβ1-4GlcNAcβ1-3Galβ1-4GlcNAcβ1-3Galβ1-4GlcNAc [5LN]
- Relative activity (%) Test 1 G6sec2 [1]: 11.5%
- Relative activity (%) Test 2 G6sec2 [1]: 12.3%
- Relative activity (%) Test 1 G6sec1 [2]: 9.3%

Compound: galactosylceramide (Type I)
- β1,3-N-acetylglucosaminyltransferase activity for the glycolipid [4]: did not show activity

Compound: lacto-N-fucopentaose III [LNFP-III]
- Relative activity (%) [3]: 4.9%

Compound: lacto-N-fucopentaose V [LNFP-V]
- Relative activity (%) [3]: 4.9%
